Patent US5321032A, “Peptide compounds and pharmaceutical compositions thereof” (priority 1990, dated 1994)

What follows are molecules tested against T1, substance P receptor (Cavia porcellus, UniProt P30547) (assay: 3H-Substance P binding to guinea pig crude lung membrane preparation). Conditions: test compound 1 μg/ml; 3H-substance P 1 nM; crude lung membrane fractions, 4° C., 30 minutes.
T1 construct: The trachea and lung were removed and homogenized in buffer; from tissue; host or cells: guinea pig trachea and lung, crude membrane fraction
T1 sequence (P30547 whole entry): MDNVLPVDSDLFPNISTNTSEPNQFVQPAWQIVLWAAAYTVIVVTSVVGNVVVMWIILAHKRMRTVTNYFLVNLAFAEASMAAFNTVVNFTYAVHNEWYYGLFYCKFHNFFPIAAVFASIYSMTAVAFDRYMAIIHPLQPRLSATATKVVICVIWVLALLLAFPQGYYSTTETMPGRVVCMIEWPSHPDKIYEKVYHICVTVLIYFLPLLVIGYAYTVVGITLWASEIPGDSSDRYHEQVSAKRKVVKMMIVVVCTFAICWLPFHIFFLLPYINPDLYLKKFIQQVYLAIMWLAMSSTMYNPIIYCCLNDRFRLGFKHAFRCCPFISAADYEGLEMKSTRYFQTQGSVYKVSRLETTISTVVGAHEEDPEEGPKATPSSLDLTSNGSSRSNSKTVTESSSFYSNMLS
Method: 1. Binding with ^3 H-P substance receptor
(a) Crude lung membrane preparation
Male Hartly strain guinea pigs were sacrificed by decapitation, The trachea and lung were removed and homogenized in buffer (0.25M sucrose, 50 mM Tris-HCl pH 7.5, 0.1 mM MEDTA) by using Polytoron (Kinematica). The homogenate was centrifuged (1000 x g, 10 min) to remove tissue clumps and the supernatant was centrifuges (14000 x g, 20 min) to yield pellets. The pellets were resuspended in buffer (5 mM Tris-HC1 pH 7.5), homofenized with a teflon homogenizer and centrifuged (14000 x g, 20 min) to yield pellets which were referred to crude membrane fractions. The obtained pallets were stored at -70 ° C. until use.
(b) ^3 H-Substance P binding to preparation membrane
Frozen crude membrane fractions were thawed and resuspended in Medium 1 (50 mM Tris-HC1 pH 7.5, 5 mM MnCl2, 0.02% BSA, 2 μg/ml chymostatin, 4 μg/ml leupeptin, 40 μg/ml bacitaracin). ^3 H-substance P (1 nM ) was incubated with 100 μl of the membrane preparation in Medium 1 at 4° C. for 30 minutes in a final volume of 500 μl. At the end of the incubation over a Whatman GF/B glass filter (pretreated with 0.1% polyethylene imine for 3 hours prior to use) under aspiration. The filters werre then washed four times with 5 ml of the buffer (50 mM Tris-HCl, pH 7.5). The radioactivity was counted in 5 ml of Aquazol-2 in Packerd scintillation counter (Packerd TRI-CARB 4530).

Question: With CC(=O)N[C@H](C(=O)N[C@H](Cc1cn(C=O)c2ccccc12)C(=O)N[C@@H](Cc1cccs1)C(=O)N(C)Cc1ccccc1)[C@@H](C)O [(a)] as the molecule, how does the “suppression rate (%)” value read?
Answer: 100%

Question: How did the “suppression rate (%)” value turn out when CC(=O)N[C@H](C(=O)N[C@H](Cc1cn(C=O)c2ccccc12)C(=O)N1Cc2ccccc2C[C@@H]1C(=O)N(C)Cc1ccccc1)[C@@H](C)O [(b)] was run?
Answer: 99%

Question: CC(=O)N[C@H](C(=O)N[C@H](Cc1cn(C=O)c2ccccc12)C(=O)N(C)[C@@H](Cc1ccccc1)C(=O)N(C)Cc1ccccc1)[C@@H](C)O [(c)] was tested. Which “suppression rate (%)” value did it give?
Answer: 96%
